This is an account of results in patent US11986471B2, “Compounds and methods of use” (Tango Therapeutics, Inc., priority 2018, dated 2024).

The target in experiment [1] is T1, PRMT5 (Homo sapiens, UniProt O14744).
T1 construct: purchased Viva (custom protein)
The experiment can be described thus: PRMT5 IC50 assay in the presence of SAM as cofactor. The class given is biochemical. In a few lines: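 MTA-dependent versus SAM-dependent inhibition of human PRMT5 was assessed by IC50; conversion factors of 13.5 and 1.5 gave the corresponding Ki.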

The test system of the next experiment is HAP1 MTAP-intact. The experiment can be described thus: SDMA in-cell western assay, HAP1 MTAP-intact cell line. The following applies: Homo sapiens. The class given is cell-based. In a few lines:
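Using an MTAP-isogenic HAP1 cell pair, inhibition of SDMA formation is read by in-cell western and expressed as IC50. MTAP-selectivity is assigned where the ratio between lines reaches 3 fold or greater.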

The next experiment concerns HAP1 MTAP-deleted. Briefly: SDMA in-cell western assay, HAP1 MTAP-deleted cell line. It counts as cell-based. The following applies: for IC50: Homo sapiens, HAP1 MTAP-deleted cell line; for MTAP Intact/Deleted Ratio: IC50 ratio HAP1 MTAP-intact / HAP1 MTAP-deleted. In a few lines: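 In-cell western for SDMA marks; MTAP-deleted (null) HAP1 background; values given as IC50.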

Experiment [2] addresses T1, PRMT5. The experiment can be described thus: PRMT5 IC50 assay in the presence of MTA as cofactor. The class given is biochemical. The following applies: for IC50: PRMT5, MTA as cofactor. In a few lines: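 Three cofactor conditions tested for PRMT5 inhibition: none, MTA and SAM, each giving an IC50. For conversion to Ki, the MTA-condition IC50 is divided by 13.5 and the SAM-condition IC50 by 1.5, and the two Ki values are expressed as a SAM/MTA ratio.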

Experiment [3] deals with T1, PRMT5. Briefly: PRMT5 IC50 assay with no cofactor. The class given is biochemical. Put shortly: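 Human PRMT5 inhibition, IC50 in μM; cofactor varied (SAM / MTA / none).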
The mark [4] stands for this setting: ratio between the Ki in the presence of SAM and the Ki in the presence of MTA.
The mark [5] stands for this setting: ratio between Ki in the presence of SAM and Ki in the presence of MTA.

SMILES strings stand for the structures. Some results are limits rather than exact numbers.

T1 sequence (O14744 whole entry): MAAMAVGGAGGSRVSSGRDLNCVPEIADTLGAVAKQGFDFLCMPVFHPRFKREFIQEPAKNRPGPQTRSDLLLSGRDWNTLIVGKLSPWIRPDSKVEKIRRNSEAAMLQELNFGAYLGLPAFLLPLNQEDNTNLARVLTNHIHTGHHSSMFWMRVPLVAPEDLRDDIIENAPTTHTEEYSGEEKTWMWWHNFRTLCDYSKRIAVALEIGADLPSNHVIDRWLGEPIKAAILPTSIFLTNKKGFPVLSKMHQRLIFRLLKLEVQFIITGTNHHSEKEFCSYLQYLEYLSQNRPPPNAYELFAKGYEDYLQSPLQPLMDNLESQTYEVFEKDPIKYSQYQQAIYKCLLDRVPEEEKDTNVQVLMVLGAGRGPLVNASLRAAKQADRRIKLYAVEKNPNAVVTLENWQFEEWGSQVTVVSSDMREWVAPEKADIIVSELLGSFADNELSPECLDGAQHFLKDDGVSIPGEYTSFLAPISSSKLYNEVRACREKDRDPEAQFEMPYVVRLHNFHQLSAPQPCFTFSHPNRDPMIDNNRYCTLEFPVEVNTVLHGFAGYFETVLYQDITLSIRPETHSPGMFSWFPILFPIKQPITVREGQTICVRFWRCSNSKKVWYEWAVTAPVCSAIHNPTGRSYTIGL
T1 sequence (Q9BQA1 whole entry partner): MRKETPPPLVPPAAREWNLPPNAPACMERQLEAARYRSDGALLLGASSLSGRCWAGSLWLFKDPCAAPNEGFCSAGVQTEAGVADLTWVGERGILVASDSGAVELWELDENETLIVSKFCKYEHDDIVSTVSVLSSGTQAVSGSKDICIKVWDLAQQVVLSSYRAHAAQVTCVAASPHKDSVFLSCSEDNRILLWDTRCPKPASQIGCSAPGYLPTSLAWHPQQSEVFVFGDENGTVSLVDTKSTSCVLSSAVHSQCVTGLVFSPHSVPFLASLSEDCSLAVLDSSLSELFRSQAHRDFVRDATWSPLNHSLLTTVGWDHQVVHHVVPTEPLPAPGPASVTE

In general, IC50 refers to the point on the concentration scale where inhibition reaches its midpoint. Consider `CS(=O)(=O)N1CCC(Nc2cc(C(=O)NC[C@H](O)CN3CCc4cc(OCc5cnco5)ccc4C3)ccn2)CC1` [Compound 430, N-[(2S)-2-hydroxy-3-[6-(oxazol-5-ylmethoxy)-3,4-dihydro-1H-isoquinolin-2-yl]propyl]-2-[(1-methylsulfonyl-4-piperidyl)amino]pyridine-4-carboxamide], for which the IC50 at PRMT5 [1] is 0.05 to 0.5 µM; in the experiment with HAP1 MTAP-intact, at least 10 µM; in the experiment with HAP1 MTAP-deleted, 1 to 10 µM; on PRMT5 [2], 0.05 to 0.5 µM; at PRMT5 [3], 0.5 to 5 µM. Also, in the experiment on HAP1 MTAP-deleted, the “MTAP Intact/Deleted Ratio” value was “C* (an IC50 ratio of less than 3 fold between the IC50 in the HAP1 MTAP-intact cell line and the HAP1 MTAP-deleted cell line)”. Moreover, the “SAM/MTA Ratio” value on PRMT5 [2] (setting [4]) is “A (a Ki ratio greater than or equal to 10 fold between the Ki in the presence of SAM and the Ki in the presence of MTA)”.
Regarding `O=C(NC[C@H](O)CN1CCc2c(ccc(OCc3cnco3)c2Cl)C1)c1ccnc(NC2CC(F)(F)C2)c1` [Compound 357, (S)—N-(3-(5-chloro-6-(oxazol-5-ylmethoxy)-3,4-dihydroisoquinolin-2(1H)-yl)-2-hydroxypropyl)-2-((3,3-difluorocyclobutyl)amino)isonicotinamide], the IC50 on PRMT5 [1] was 0.5 to 5 µM; in the experiment with HAP1 MTAP-intact it was at least 10 µM; with HAP1 MTAP-deleted, at least 10 µM; at PRMT5 [2] it was 0.05 to 0.5 µM; on PRMT5 [3] (read-out: No Co-factor IC50), at least 5 µM. For the same compound, the “MTAP Intact/Deleted Ratio” value in the experiment on HAP1 MTAP-deleted was “C* (an IC50 ratio of less than 3 fold between the IC50 in the HAP1 MTAP-intact cell line and the HAP1 MTAP-deleted cell line)”. In addition, the “SAM/MTA Ratio” value at PRMT5 [2] (setting [5]) was “A (a Ki ratio greater than or equal to 10 fold between the Ki in the presence of SAM and the Ki in the presence of MTA)”.
On to `Cc1c(OCc2cnco2)ccc2c1CCN(C[C@@H](O)CNC(=O)c1ccnc(NC3CN(C(=O)C4CC4)C3)c1)C2` [Compound 588, (S)-2-((1-(cyclopropanecarbonyl)azetidin-3-yl)amino)-N-(2-hydroxy-3-(5-methyl-6-(oxazol-5-ylmethoxy)-3,4-dihydroisoquinolin-2(1H)-yl)propyl)isonicotinamide], for which the IC50 is 0.05 to 0.5 µM on PRMT5 [1]; at least 10 µM in the experiment on HAP1 MTAP-intact; 1 to 10 µM in the experiment on HAP1 MTAP-deleted; 0.05 to 0.5 µM on PRMT5 [2]; 0.5 to 5 µM on PRMT5 [3]. The “MTAP Intact/Deleted Ratio” value in the experiment with HAP1 MTAP-deleted is “C* (an IC50 ratio of less than 3 fold between the IC50 in the HAP1 MTAP-intact cell line and the HAP1 MTAP-deleted cell line)”. The “SAM/MTA Ratio” value on PRMT5 [2] (setting [4]) was “A (a Ki ratio greater than or equal to 10 fold between the Ki in the presence of SAM and the Ki in the presence of MTA)”.
Turning to `Cc1ncoc1COc1ccc2c(c1C)CCN(C[C@@H](O)CNC(=O)c1cccc(NC3CCC3)c1)C2` [Compound 488, 3-(cyclobutylamino)-N-[(2S)-2-hydroxy-3-{5-methyl-6-[(4-methyl-1,3-oxazol-5-yl)methoxy]-1,2,3,4-tetrahydroisoquinolin-2-yl}propyl]benzamide], the IC50 at PRMT5 [1] was 0.5 to 5 µM; with HAP1 MTAP-intact, at least 10 µM; in the experiment with HAP1 MTAP-deleted, 1 to 10 µM; at PRMT5 [2], 0.05 to 0.5 µM; on PRMT5 [3], at least 5 µM. Further, the “MTAP Intact/Deleted Ratio” value in the experiment on HAP1 MTAP-deleted was “C* (an IC50 ratio of less than 3 fold between the IC50 in the HAP1 MTAP-intact cell line and the HAP1 MTAP-deleted cell line)”. Besides, the “SAM/MTA Ratio” value at PRMT5 [2] (setting [4]) was “A (a Ki ratio greater than or equal to 10 fold between the Ki in the presence of SAM and the Ki in the presence of MTA)”.
`Cc1c(OCc2ccnn2C)ccc2c1CCN(C[C@@H](O)CNC(=O)c1ccnc(NC3CCCCC3)c1)C2` [Compound 278, (S)-2-(cyclohexylamino)-N-(2-hydroxy-3-(5-methyl-6-((1-methyl-1H-pyrazol-5-yl)methoxy)-3N-dihydroisoquinolin-2(1H)-yl)propyl)isonicotinamide]: the IC50 on PRMT5 [1] is 0.5 to 5 µM; with HAP1 MTAP-intact, at least 10 µM; in the experiment with HAP1 MTAP-deleted, at least 10 µM; on PRMT5 [2] it was 0.5 to 5 µM; on PRMT5 [3] (read-out: No Co-factor IC50), at least 5 µM. For the same compound, the “MTAP Intact/Deleted Ratio” value in the experiment on HAP1 MTAP-deleted was “C* (an IC50 ratio of less than 3 fold between the IC50 in the HAP1 MTAP-intact cell line and the HAP1 MTAP-deleted cell line)”. At PRMT5 [2] (setting [5]), the “SAM/MTA Ratio” value is “A (a Ki ratio greater than or equal to 10 fold between the Ki in the presence of SAM and the Ki in the presence of MTA)”.
Regarding `CC(=O)N1CCC(Nc2cc(C(=O)NC[C@H](O)CN3CCc4cc(OCc5ocnc5C)ccc4C3)cc(N3CCCCC3)n2)CC1` [Compound 587, 2-[(1-acetylpiperidin-4-yl)amino]-N-[(2S)-2-hydroxy-3-{6-[(4-methyl-1,3-oxazol-5-yl)methoxy]-1,2,3,4-tetrahydroisoquinolin-2-yl}propyl]-6-(piperidin-1-yl)pyridine-4-carboxamide], the IC50 on PRMT5 [1] was 0.05 to 0.5 µM; in the experiment with HAP1 MTAP-intact, 1 to 10 µM; in the experiment on HAP1 MTAP-deleted it was below 1 µM; on PRMT5 [2], 0.05 to 0.5 µM; against PRMT5 [3], 0.5 to 5 µM. In the experiment with HAP1 MTAP-deleted, the “MTAP Intact/Deleted Ratio” value was “A* (an IC50 ratio greater than or equal to 10 fold between the IC50 in the HAP1 MTAP-intact cell line and the HAP1 MTAP-deleted cell line)”. Besides, at PRMT5 [2] (setting [4]), the “SAM/MTA Ratio” value is “A (a Ki ratio greater than or equal to 10 fold between the Ki in the presence of SAM and the Ki in the presence of MTA)”.
Consider `O=C(NC[C@H](O)CN1CCc2c(ccc(OCc3cnco3)c2Cl)C1)c1cc(NC2CCCC2)ncn1` [Compound 336, (S)—N-(3-(5-chloro-6-(oxazol-5-ylmethoxy)-3,4-dihydroisoquinolin-2(1H)-yl)-2-hydroxypropyl)-6-(cyclopentylamino)pyrimidine-4-carboxamide], for which the IC50 is 0.5 to 5 µM on PRMT5 [1]; at least 10 µM with HAP1 MTAP-intact; at least 10 µM with HAP1 MTAP-deleted; 0.5 to 5 µM on PRMT5 [2]; at least 5 µM at PRMT5 [3] (read-out: No Co-factor IC50). Also, the “MTAP Intact/Deleted Ratio” value with HAP1 MTAP-deleted was “C* (an IC50 ratio of less than 3 fold between the IC50 in the HAP1 MTAP-intact cell line and the HAP1 MTAP-deleted cell line)”. Also, the “SAM/MTA Ratio” value on PRMT5 [2] (setting [5]) was “A (a Ki ratio greater than or equal to 10 fold between the Ki in the presence of SAM and the Ki in the presence of MTA)”.
For `Cc1c(OCc2cnco2)ccc2c1CCN(C[C@@H](O)CNC(=O)c1ccnc(NC3CCCC3)c1)C2` [Compound 356, 2-(cyclopentylamino)-N-[(2S)-2-hydroxy-3-{5-methyl-6-[(1,3-oxazol-5-yl)methoxy]-1,2,3,4-tetrahydroisoquinolin-2-yl}propyl]pyridine-4-carboxamide], the IC50 on PRMT5 [1] is 0.05 to 0.5 µM; in the experiment with HAP1 MTAP-intact, at least 10 µM; with HAP1 MTAP-deleted, at least 10 µM; at PRMT5 [2], 0.05 to 0.5 µM; on PRMT5 [3] (read-out: No Co-factor IC50), at least 5 µM. Also, the “MTAP Intact/Deleted Ratio” value in the experiment on HAP1 MTAP-deleted was “C* (an IC50 ratio of less than 3 fold between the IC50 in the HAP1 MTAP-intact cell line and the HAP1 MTAP-deleted cell line)”. In addition, the “SAM/MTA Ratio” value at PRMT5 [2] (setting [5]) was “A (a Ki ratio greater than or equal to 10 fold between the Ki in the presence of SAM and the Ki in the presence of MTA)”.
